Data taken from patent publication US12479856B2, “Pharmaceutical compounds for the treatment of complement mediated disorders” (Achillion Pharmaceuticals, Inc., priority 2019, dated 2025).

What follows are compounds tested against T1, Human complement C1s enzyme (Homo sapiens, UniProt P09871) (assay: Human C1s Enzyme Assay). Settings: Table 1; C1s purified from human serum, 1.16 nM; substrate Z-L-Lys-SBzl; read-out: C1s Protease Activity.
T1 construct: purified from human serum, Complement Technology, Inc; purchased Complement Technology, Inc; host or cells: human serum (plasma-derived natural protein)
T1 sequence (P09871 438-688 limits assumed): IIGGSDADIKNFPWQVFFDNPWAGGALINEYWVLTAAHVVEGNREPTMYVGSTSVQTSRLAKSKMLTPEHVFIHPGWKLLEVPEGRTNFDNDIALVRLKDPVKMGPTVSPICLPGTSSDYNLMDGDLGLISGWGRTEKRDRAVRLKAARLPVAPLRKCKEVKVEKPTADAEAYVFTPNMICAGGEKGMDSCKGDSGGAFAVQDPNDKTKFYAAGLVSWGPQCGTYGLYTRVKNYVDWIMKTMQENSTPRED
T1 sequence (P09871 16-437 partner limits assumed): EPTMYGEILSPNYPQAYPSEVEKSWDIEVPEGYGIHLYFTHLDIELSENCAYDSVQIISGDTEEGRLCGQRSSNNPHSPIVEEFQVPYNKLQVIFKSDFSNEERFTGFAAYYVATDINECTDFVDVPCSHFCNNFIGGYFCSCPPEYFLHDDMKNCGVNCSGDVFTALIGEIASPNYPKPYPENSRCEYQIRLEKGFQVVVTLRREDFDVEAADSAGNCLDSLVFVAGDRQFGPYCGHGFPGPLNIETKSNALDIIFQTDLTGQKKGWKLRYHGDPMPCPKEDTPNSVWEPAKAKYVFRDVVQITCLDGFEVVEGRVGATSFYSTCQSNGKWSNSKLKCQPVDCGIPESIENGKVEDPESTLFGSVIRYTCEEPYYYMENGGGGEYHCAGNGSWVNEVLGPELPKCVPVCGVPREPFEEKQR
Format: biochemical
Summary of the method: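 Serum-purified human C1s (1.16 nM) preincubated 5 min at RT with compound in 50 mM Tris, 1 M NaCl, pH 7.5. Z-L-Lys-SBzl and DTNB (100 μM each) then added; A405 followed every 30 s for 30 min. IC50 from nonlinear regression of reaction rates versus compound concentration.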

Row | Compound | IC50
1 | NCCCCCCNC(=O)[C@@H]1CC2(CN1C(=O)CNC(=O)c1ccc(Oc3ccccc3)cc1)OCCO2 [Compound 27, (8S)—N-(6-Aminohexyl)-7-{2-[(4-phenoxyphenyl)formamido]acetyl}-1,4-dioxa-7-azaspiro[4.4]nonane-8-carboxamide] | > 1 µM
2 | NCCCCNC(=O)[C@@H]1CC2(CN1C(=O)CNC(=O)c1ccc(Oc3ccccc3)cc1)OCCO2 [Compound 25, (8S)—N-(4-Aminobutyl)-7-{2-[(4-phenoxyphenyl)formamido]acetyl}-1,4-dioxa-7-azaspiro[4.4]nonane-8-carboxamide] | > 1 µM

Now from value to compound:

Row | IC50 | Compound
3 | < 0.1 µM | CO[C@H]1C[C@@H](C(=O)NCc2cc(C(=N)N)cs2)N(C(=O)CNC(=O)c2ccc(Oc3ccccc3)cc2)C1 [Compound 33, (2S,4S)—N-[(4-carbamimidoylthiophen-2-yl)methyl]-4-methoxy-1-{2-[(4-phenoxyphenyl)formamido]acetyl}pyrrolidine-2-carboxamide]
4 | < 0.1 µM | N=C(N)c1csc(CNC(=O)C2N(C(=O)CNC(=O)c3ccc(Oc4ccccc4)cc3)CC23CCC3)c1 (centres unmarked) [Compound 7, N-[(4-Carbamimidoylthiophen-2-yl)methyl]-2-{2-[(4-phenoxyphenyl)formamido]acetyl}-2-azaspiro[3.3]heptane-1-carboxamide]
5 | < 0.1 µM | N=C(N)c1csc(CNC(=O)C2CC3(CCC3)CN2C(=O)CNC(=O)c2ccc(Oc3ccccc3)cc2)c1 (centres unmarked) [Compound 11, N-[(4-Carbamimidoylthiophen-2-yl)methyl]-6-{2-[(4-phenoxyphenyl)formamido]acetyl}-6-azaspiro[3.4]octane-7-carboxamide]
6 | < 0.1 µM | N=C(N)c1csc(CNC(=O)[C@@H]2CC3(CCCC3)CN2C(=O)CNC(=O)c2ccc(Oc3ccccc3)cc2)c1 [Compound 12, (3S)—N-[(4-Carbamimidoylthiophen-2-yl)methyl]-2-{2-[(4-phenoxyphenyl)formamido]acetyl}-2-azaspiro[4.4]nonane-3-carboxamide]
7 | < 0.1 µM | N=C(N)c1csc(CNC(=O)[C@@H]2C[C@@H](O)CN2C(=O)CNC(=O)c2ccc(Oc3ccccc3)cc2)c1 [Compound 31, (2S,4R)—N-[(4-carbamimidoylthiophen-2-yl)methyl]-4-hydroxy-1-{2-[(4-phenoxyphenyl)formamido]acetyl}pyrrolidine-2-carboxamide]
8 | < 0.1 µM | C[C@@]12C[C@@H](C(=O)NCc3cc(C(=N)N)cs3)N(C(=O)CNC(=O)c3ccc(Oc4ccccc4)cc3)[C@@H]1C2 [Compound 8, (1R,3S,5R)—N-[(4-Carbamimidoylthiophen-2-yl)methyl]-5-methyl-2-{2-[(4-phenoxyphenyl)formamido]acetyl}-2-azabicyclo[3.1.0]hexane-3-carboxamide]

Same assay, conditions: Table 2; C1s purified from human serum, 1.16 nM; substrate Z-L-Lys-SBzl; read-out: C1s Protease Activity

Row | Compound | IC50
9 | CN(C)CCCC(=O)NCC(=O)N1CCC[C@H]1C(=O)NCc1cc(C(=N)N)cs1 [Compound 69, (S)-N-((4-carbamimidoylthiophen-2-yl)methyl)-1-((4-(dimethylamino)butanoyl)glycyl)pyrrolidine-2-carboxamide] | > 1 µM
10 | CCCCCCC(=O)NCC(=O)N1CCC[C@H]1C(=O)NCc1cc(C(=N)N)cs1 [Compound 83, (S)-N-((4-carbamimidoylthiophen-2-yl)methyl)-1-(heptanoylglycyl)pyrrolidine-2-carboxamide] | 0.1 to 1 µM
11 | N=C(N)NOCCNC(=O)[C@@H]1CC2(CN1C(=O)CNC(=O)c1ccc(Oc3ccccc3)cc1)OCCO2 [Compound 65, (S)-N-(2-(guanidinooxy)ethyl)-7-((4-phenoxybenzoyl)glycyl)-1,4-dioxa-7-azaspiro[4.4]nonane-8-carboxamide] | > 1 µM
12 | N=C(N)c1csc(CNC(=O)[C@@H]2CCCN2C(=O)CNC(=O)CCCOc2ccccc2)c1 [Compound 67, (S)-N-((4-carbamimidoylthiophen-2-yl)methyl)-1-((4-phenoxybutanoyl)glycyl)pyrrolidine-2-carboxamide] | < 0.1 µM
13 | CCCCOc1ccc(C(=O)NCC(=O)N2CCC[C@H]2C(=O)NCc2cc(C(=N)N)cs2)cc1 [Compound 78, (S)-1-((4-butoxybenzoyl)glycyl)-N-((4-carbamimidoylthiophen-2-yl)methyl)pyrrolidine-2-carboxamide] | < 0.1 µM
14 | N=C(N)c1csc(CNC(=O)[C@@H]2CCCN2C(=O)COCc2ccc(Oc3ccccc3)cc2)c1 [Compound 38, (S)-N-((4-carbamimidoylthiophen-2-yl)methyl)-1-(2-((4-phenoxybenzyl)oxy)acetyl)pyrrolidine-2-carboxamide] | 0.1 to 1 µM
15 | CCCCc1cc(C(=O)NCC(=O)N2CCC[C@H]2C(=O)NCc2cc(C(=N)N)cs2)ccc1Oc1ccccc1 [Compound 43, (S)-1-((3-butyl-4-phenoxybenzoyl)glycyl)-N-((4-carbamimidoylthiophen-2-yl)methyl)pyrrolidine-2-carboxamide] | < 0.1 µM
16 | Cc1cc(C(=O)NCC(=O)N2CC3(C[C@H]2C(=O)NCc2cc4c(N)nccc4s2)OCCO3)ccc1Oc1ccccc1 [Compound 64, (S)-N-((4-aminothieno[3,2-c]pyridin-2-yl)methyl)-7-((3-methyl-4-phenoxybenzoyl)glycyl)-1,4-dioxa-7-azaspiro[4.4]nonane-8-carboxamide] | 0.1 to 1 µM
17 | Cc1cc(C(=O)NCC(=O)N2CC3(CCCC3)C[C@H]2C(=O)NCc2cc(C(=N)N)cs2)ccc1Oc1ccccc1 [Compound 46, (S)-N-((4-carbamimidoylthiophen-2-yl)methyl)-2-((3-methyl-4-phenoxybenzoyl)glycyl)-2-azaspiro[4.4]nonane-3-carboxamide] | < 0.1 µM

Results, then the compound that gave them:

Row | IC50 | Compound
18 | > 1 µM | CO[C@@H]1C[C@H](C(=O)NCc2cc(C(=N)N)cs2)[C@H](C(=O)CNC(=O)c2ccc(Oc3ccccc3)cc2)C1 [Compound 61, N-(2-((1R,2S,4S)-2-(((4-carbamimidoylthiophen-2-yl)methyl)carbamoyl)-4-methoxycyclopentyl)-2-oxoethyl)-4-phenoxybenzamide]
19 | < 0.1 µM | N=C(N)c1csc(CNC(=O)[C@@H]2CCCN2C(=O)CNC(=O)c2ccc(Cc3ccccc3)cc2)c1 [Compound 56, (S)-1-((4-benzylbenzoyl)glycyl)-N-((4-carbamimidoylthiophen-2-yl)methyl)pyrrolidine-2-carboxamide]
20 | < 0.1 µM | N/C(=N\O)c1csc(CNC(=O)[C@@H]2CC3(CN2C(=O)CNC(=O)c2ccc(Oc4ccccc4)cc2)OCCO3)c1 [Compound 66, (S,Z)-N-((4-(N′-hydroxycarbamimidoyl)thiophen-2-yl)methyl)-7-((4-phenoxybenzoyl)glycyl)-1,4-dioxa-7-azaspiro[4.4]nonane-8-carboxamide]
21 | 0.1 to 1 µM | N=C(N)c1csc(CNC(=O)[C@@H]2CCCN2C(=O)NNC(=O)c2ccc(Oc3ccccc3)cc2)c1 [Compound 59, (S)-N-((4-carbamimidoylthiophen-2-yl)methyl)-1-(2-(4-phenoxybenzoyl)hydrazine-1-carbonyl)pyrrolidine-2-carboxamide]
22 | < 0.1 µM | N#C/N=C(\N)c1csc(CNC(=O)[C@@H]2CC3(CN2C(=O)CNC(=O)c2ccc(Oc4ccccc4)cc2)OCCO3)c1 [Compound 63, (S,Z)-N-((4-(N′-cyanocarbamimidoyl)thiophen-2-yl)methyl)-7-((4-phenoxybenzoyl)glycyl)-1,4-dioxa-7-azaspiro[4.4]nonane-8-carboxamide]

Same assay, conditions: Table 3; C1s purified from human serum, 1.16 nM; substrate Z-L-Lys-SBzl; read-out: C1s Protease Activity

Row | IC50 | Compound
23 | > 1 µM | N=C(N)c1csc(NC(=O)[C@@H]2CC3(CN2C(=O)CNC(=O)c2ccc(Oc4ccccc4)cc2)OCCO3)c1 [Compound 91, (S)-N-(4-carbamimidoylthiophen-2-yl)-7-((4-phenoxybenzoyl)glycyl)-1,4-dioxa-7-azaspiro[4.4]nonane-8-carboxamide]
24 | < 0.1 µM | N=C(N)c1csc(CNC(=O)[C@@H]2C[C@H](Oc3cccc(F)c3)CN2C(=O)CNC(=O)c2ccc(Oc3ccccc3)cc2)c1 [Compound 108, (2S,4S)-N-((4-carbamimidoylthiophen-2-yl)methyl)-4-(3-fluorophenoxy)-1-((4-phenoxybenzoyl)glycyl)pyrrolidine-2-carboxamide]
25 | < 0.1 µM | N=C(N)c1csc(CNC(=O)[C@@H]2C[C@@H](OC(F)F)CN2C(=O)CNC(=O)c2ccc(Oc3ccccc3)cc2)c1 [Compound 101, (2S,4R)-N-((4-carbamimidoylthiophen-2-yl)methyl)-4-(difluoromethoxy)-1-((4-phenoxybenzoyl)glycyl)pyrrolidine-2-carboxamide]
26 | < 0.1 µM | N=C(N)c1ccc(CNC(=O)[C@@H]2CC3(CN2C(=O)CNC(=O)c2ccc(Oc4ccccc4)cc2)OCCO3)s1 [Compound 92, (S)-N-((5-carbamimidoylthiophen-2-yl)methyl)-7-((4-phenoxybenzoyl)glycyl)-1,4-dioxa-7-azaspiro[4.4]nonane-8-carboxamide]
